Test results as given in patent US11752125B2, “Anti-neuroinflammatory and protective compounds in Achillea fragrantissima” (THE STATE OF ISRAEL MINISTRY OF AGRICULTURE & RURAL …, priority 2013, dated 2023).

Experiments:
MMP-9 = MMP-9 activity in LPS-activated microglial cells (gelatin zymography); assay type: cell-based, rat; settings: LPS 4.5 ng/mL, 24 h
Source text: Determination of MMP Activities in Conditioned Media of Microglial Cells. MMP-9 activity was quantified by gelatin zymography.
1. Prepare a primary culture of microglial cells and plate cells as described in “Anti-neuroinflammatory effects of the extract of achillea fragrantissima” 2011. A. Elmann, S. Mordechay, H. Erlank, A. Telerman, M. Rindner, R. Ofir. BMC Complementary and Alternative Medicine. 11:98; 2. Treat cells with freshly diluted AcA of the invention; 3. Activate microglial cells with lipopolysaccharide (LPS, 4.5 nanograms/mL); 4. Measure the levels of MMP-9 by gel zymography as described in “Anti-neuroinflammatory effects of the extract of achillea fragrantissima” 2011. A. Elmann, S. Mordechay, H. Erlank, A. Telerman, M. Rindner, R. Ofir. BMC Complementary and Alternative Medicine. 11:98. 5. […]
Microglial cells were treated with the indicated concentrations of achillolide A, followed by stimulation with LPS (4.5 ng/mL). […] The levels of MMP-9 transcripts were measured by quantitative real-time PCR. The results from three technical replicates were normalized to β-actin and are expressed as relative quantity of MMP-9 transcripts in FIG. 23 B. The results are means±SD of one representative experiment out of three experiments. Cell viability was determined 24 h later by the crystal violet assay. […]

ERK1/2 = experiment: SNP-induced ERK1/2 phosphorylation in N2a cells (ELISA); assay type: cell-based; settings: concomitant treatment 40 min, total protein not affected
Procedure: N2a cells were treated concomitantly with SNP and TTF for 40 min. Cells were extracted and the levels of phosphorylated or total ERK1/2 were determined by specific ELISA kits. The results are shown in FIG. 19 and are the mean±SEM of one experiment (n=2).

N2a neuronal cells = experiment: SNP-induced ROS elevation in N2a cells; assay type: cell-based; settings: TTF 2 μM; SNP 250 μM; 20 h
Procedure: N2a neuronal cells were pre-loaded with DCF-DA for 30 min and washed. TTF (2 μM) was added to cells before (−2 h, −1 h), concomitant with (0) or after (1 h, 2 h) the addition of SNP (250 μM). ROS levels in neuronal cells were measured 20 h after the application of SNP. The results are shown in FIG. 18 and are the mean±SEM of two different experiments (n=15).

C=C1CCC2=C(CO)C(=O)O[C@H]2/C=C(\C)[C@H](OC(C)=O)CC1=O [achillolide A]
effect on LPS-induced MMP-9 activity (MMP-9): markedly inhibited

COc1cc(-c2oc3cc(OC)c(OC)c(O)c3c(=O)c2O)ccc1O [TTF, 3,5,4′-trihydroxy-6,7,3′-trimethoxyflavone]
effect on SNP-induced phosphorylation of ERK1/2 (ERK1/2): significantly inhibited | effect on SNP-induced ROS elevation (N2a neuronal cells): attenuates the elevation in ROS levels
